The record followed here is patent US4254135A, “3-Amino-4-hydroxypyrrolidines” (A. H. Robins Company, Inc., priority 1979, dated 1981).

Where a name gives a salt, the structure may show the parent alone.

For orientation: ED50 means the dose at which the effect has come halfway, by size or by number of responders.

This experiment can be described thus: Antitetrabenazine test (blocking of depressant effects induced in mice by intravenous tetrabenazine), antidepressant activity. In kind it is in vivo. Particulars: Mus musculus, ip, compound intraperitoneally, tetrabenazine intravenously.
With `CCN1C[C@@H](N(C(=O)c2ccc(Cl)cc2)c2ccccc2)[C@H](OC(=O)c2ccc(Cl)cc2)C1` (relative stereo) [Example 27, Trans-4-chlorobenzoic Acid Ester with 4-[(4-Chlorobenzoyl)(phenyl)amino]-1-ethyl-3-pyrrolidinol (E)-2-butenedioate (3:4)], the ED50 came to 1.1 mg/kg.
For the molecule `CCN1C[C@@H](O)[C@H](N(C(=O)c2ccc(Cl)cc2)c2ccccc2)C1` (relative stereo) [Example 28, Trans-4-chloro-N-(1-ethyl-4-hydroxy-3-pyrrolindinyl)-N-phenylbenzamide Fumarate], the 50% effect level (ED50) was put at a dose of 2.9 mg/kg.
Next, `CCN1C[C@@H](O)[C@H](N(C(=O)c2ccccc2)c2ccccc2)C1` (relative stereo) [Example 29, Trans-N-(1-ethyl-4-hyroxy-3-pyrrolidinyl)-N-phenylbenzamide (E)-2-butenedioate]: 2.7 mg/kg; `CCN1C[C@@H](O)[C@H](N(C(=O)c2ccccc2)C2CCCCC2)C1` (relative stereo) [Example 50, Trans-4-[(benzoyl)(cyclohexyl)amino]-1-ethyl-3-pyrrolidinol Fumarate [1:1]]: 0.3 mg/kg.
